The assay concerns the target T1, hDAGL-α (Homo sapiens, UniProt Q9Y4D2).
T1 sequence (Q9Y4D2 1-1042): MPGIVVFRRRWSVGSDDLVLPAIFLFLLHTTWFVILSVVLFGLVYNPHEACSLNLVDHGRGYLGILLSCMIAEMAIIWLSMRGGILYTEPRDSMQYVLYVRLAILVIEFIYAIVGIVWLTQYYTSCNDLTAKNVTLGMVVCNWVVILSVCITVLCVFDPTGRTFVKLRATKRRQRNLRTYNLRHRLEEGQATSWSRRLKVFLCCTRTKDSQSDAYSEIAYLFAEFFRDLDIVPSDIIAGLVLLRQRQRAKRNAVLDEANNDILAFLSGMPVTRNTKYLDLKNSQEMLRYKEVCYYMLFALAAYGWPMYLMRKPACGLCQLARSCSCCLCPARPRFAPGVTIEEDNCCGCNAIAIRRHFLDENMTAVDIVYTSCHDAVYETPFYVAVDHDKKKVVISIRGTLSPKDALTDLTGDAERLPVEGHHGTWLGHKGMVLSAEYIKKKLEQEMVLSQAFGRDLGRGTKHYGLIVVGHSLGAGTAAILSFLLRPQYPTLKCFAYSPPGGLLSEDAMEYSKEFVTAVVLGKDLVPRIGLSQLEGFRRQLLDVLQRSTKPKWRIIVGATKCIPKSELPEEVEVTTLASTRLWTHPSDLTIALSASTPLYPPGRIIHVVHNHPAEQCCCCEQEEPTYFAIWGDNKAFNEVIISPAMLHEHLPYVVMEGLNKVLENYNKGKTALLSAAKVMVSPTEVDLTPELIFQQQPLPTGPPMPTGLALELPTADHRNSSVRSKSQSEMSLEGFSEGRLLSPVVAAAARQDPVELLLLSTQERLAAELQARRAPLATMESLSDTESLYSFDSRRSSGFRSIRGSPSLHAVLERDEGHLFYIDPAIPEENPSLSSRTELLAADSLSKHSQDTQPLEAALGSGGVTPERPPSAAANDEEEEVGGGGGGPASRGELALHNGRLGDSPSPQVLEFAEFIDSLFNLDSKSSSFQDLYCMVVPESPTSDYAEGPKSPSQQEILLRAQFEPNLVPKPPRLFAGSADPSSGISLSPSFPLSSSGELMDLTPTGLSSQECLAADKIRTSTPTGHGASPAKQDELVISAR
The experiment in a line: DAGL-α natural substrate assay (SAG hydrolysis, glycerol based real-time fluorescence assay). Format: biochemical. Set-up: expressed in transfected cells; host or cells: HEK293T (transient), membrane preparation. Conditions: for pIC50: n=4. An excerpt:
To confirm that compound 25 was also able to block conversion of the natural substrate 1-stearoyl-2-arachidonoyl-sn-glycerol of DAGL-α to the endocannabinoid 2-AG, the inventors employed a real-time, fluorescence-based assay. The DAGL-α natural substrate assay is based on the production of 2-AG from 1-stearoyl-2-arachidonoyl-sn-glycerol (SAG) hydrolysis by DAGL-α-overexpressing membrane preparations from transiently transfected HEK293T cells. The 2-AG production is coupled to the oxidation of commercially available Amplifu™Red via a multi-enzyme cascade, resulting in a fluorescent signal from the dye resorufin.
Standard assays were performed in HEMNB buffer (50 mM HEPES pH 7.4, 1 mM EDTA, 5 mM MgCl2, 100 mM NaCl, 0.5% (w/v) BSA) in black, flat clear-bottom 96-wells plates (Greiner). Final protein concentration of membrane preparations from DAGL-α-overexpressing HEK293T cells was 50 µg/mL (10 µg per well). Inhibitors were added from 40x concentrated DMSO stocks. A substrate solution of 1-stearoyl-2-arachidonoyl-sn-glycerol was prepared just prior to use. The SAG stock solution (10 mg/mL in methyl acetate) was dried under argon and subsequently dissolved in 50 mM HEPES buffer (pH 7.0) containing 0.75% (w/v) Triton X-100. The substrate solution was mixed to form an emulsion and stored on ice until use.
DAGL-α-overexpressing membranes were incubated with inhibitor for 20 min. Subsequently, assay mix containing glycerol kinase (GK), glycerol-3-phosphate oxidase (GPO), horseradish peroxidase (HRP), adenosine triphosphate (ATP), monoacylglycerol lipase (MAGL), Amplifu™Red and 1-stearoyl-2-arachidonoyl-sn-glycerol (SAG) was added and fluorescence was measured in 5 min intervals for 60 min on a GENios microplate reader (Tecan, Giessen, The Netherlands).
Standard assay concentrations: 0.2 U/mL GK, GPO and HRP, 0.125 mM ATP, 5 µg/mL MAGL-overexpressing membranes, 10 µM Amplifu™Red, 100 or 150 µM SAG, 5% DMSO, 0.0075% (w/v) Triton X-100 in a total volume of 200 µL.

[1] abbreviates: natural substrate 1-stearoyl-2-arachidonoyl-sn-glycerol.

With `O=C(CCCCCc1ccccc1)c1nc2ncccc2o1` [Compound 1, 1-(Oxazolo[4,5-b]pyridin-2-yl)-6-phenylhexan-1-one, reference compound], the pIC50 under setting [1] came to 6.3 ± 0.1.

With `Cc1ccc(-c2cnc3nc(C(=O)CCCCCc4ccccc4)oc3c2)cc1` [Compound 25, 1-(6-(p-Tolyl)oxazolo[4,5-b]pyridin-2-yl)-6-phenylhexan-1-one], the pIC50 runs as follows: (glycerol based natural substrate assay, figure legend prints nM, unit of the source corrected) 7.9 ± 0.08; under setting [1], 7.9 ± 0.08. For the same compound, the “fold increase compared to compound 1” value (natural substrate assay) is 40 fold.

As usually defined, the pIC50 is the IC50 on a negative log10 scale, so that one unit is a factor of ten.

The values are drawn from patent EP3095787A1, “[…] ACTIVE COMPOUNDS AS DAG-LIPASE INHIBITORS” (Universiteit Leiden, priority 2015, dated 2016).
